According to PubChem BioAssay (NCI):
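Method: 48-hour compound exposure of cells in 96-well plates, five concentrations, linear interpolation of endpoints. TGI denotes the concentration required for complete inhibition of growth.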

Tests used:
Test in all cases: NCI tumour cell line growth inhibition, 48 h
NCI/ADR-RES ovarian = test system: NCI/ADR-RES ovarian
TK-10 renal = test system: TK-10 renal
A549 NSCLC = test system: A549 NSCLC
SK-MEL-28 melanoma = test system: SK-MEL-28 melanoma
MOLT-4 leukemia = test system: MOLT-4 leukemia
SNB-75 CNS = test system: SNB-75 CNS
UACC-62 melanoma = test system: UACC-62 melanoma
SK-MEL-2 melanoma = test system: SK-MEL-2 melanoma
786-0 renal = test system: 786-0 renal
IGROV1 ovarian = test system: IGROV1 ovarian
UO-31 renal = test system: UO-31 renal
HOP-62 NSCLC = test system: HOP-62 NSCLC
KM12 colon = test system: KM12 colon
NCI-H23 lung = test system: NCI-H23 lung
MDA-N = test system: MDA-N
CAKI-1 renal = test system: CAKI-1 renal
HCT-116 colon = test system: HCT-116 colon
RXF 393 renal = test system: RXF 393 renal
SF-268 CNS = test system: SF-268 CNS
OVCAR-3 ovarian = test system: OVCAR-3 ovarian
HS 578T breast = test system: HS 578T breast
OVCAR-5 ovarian = test system: OVCAR-5 ovarian
LOX IMVI melanoma = test system: LOX IMVI melanoma
COLO 205 colon = test system: COLO 205 colon
DU-145 prostate = test system: DU-145 prostate
OVCAR-8 ovarian = test system: OVCAR-8 ovarian
HT29 colon = test system: HT29 colon
SW-620 colon = test system: SW-620 colon
U251 CNS = test system: U251 CNS
ACHN renal = test system: ACHN renal
CCRF-CEM leukemia = test system: CCRF-CEM leukemia
MALME-3M melanoma = test system: MALME-3M melanoma
PC-3 prostate = test system: PC-3 prostate
NCI-H522 lung = test system: NCI-H522 lung
SK-MEL-5 melanoma = test system: SK-MEL-5 melanoma
SF-295 CNS = test system: SF-295 CNS
A498 renal = test system: A498 renal
MCF7 breast = test system: MCF7 breast
MDA-MB-435 = test system: MDA-MB-435
SR leukemia = test system: SR leukemia
RPMI-8226 leukemia = test system: RPMI-8226 leukemia
HL-60(TB) leukemia = test system: HL-60(TB) leukemia
MDA-MB-231 breast = test system: MDA-MB-231 breast
SN12C renal = test system: SN12C renal
SF-539 CNS = test system: SF-539 CNS
SK-OV-3 ovarian = test system: SK-OV-3 ovarian
M14 melanoma = test system: M14 melanoma
BT-549 breast = test system: BT-549 breast
T-47D breast = test system: T-47D breast
OVCAR-4 ovarian = test system: OVCAR-4 ovarian
HOP-92 NSCLC = test system: HOP-92 NSCLC
NCI-H226 lung = test system: NCI-H226 lung
HCT-15 colon = test system: HCT-15 colon
SNB-19 CNS = test system: SNB-19 CNS
UACC-257 melanoma = test system: UACC-257 melanoma
HCC-2998 colon = test system: HCC-2998 colon
EKVX NSCLC = test system: EKVX NSCLC
K-562 leukemia = test system: K-562 leukemia
NCI-H460 lung = test system: NCI-H460 lung

C=C1C2CC[C@@](C)(O)C2[C@H]2OC(=O)C(=C)[C@@H]2C[C@H]1O (stereo not given in full)
TGI (NCI/ADR-RES ovarian): 45.8 µM
TGI (TK-10 renal): 37.8 µM
TGI (A549 NSCLC): > 100 µM
TGI (SK-MEL-28 melanoma): 72.8 µM
TGI (MOLT-4 leukemia): 60 µM
TGI (SNB-75 CNS): > 100 µM
TGI (UACC-62 melanoma): 30.1 µM
TGI (SK-MEL-2 melanoma): 50.7 µM
TGI (786-0 renal): 39.2 µM
TGI (IGROV1 ovarian): > 100 µM
TGI (UO-31 renal): 31.5 µM
TGI (HOP-62 NSCLC): > 100 µM
TGI (KM12 colon): 46.2 µM
TGI (NCI-H23 lung): 36 µM
TGI (MDA-N): 91.1 µM
TGI (CAKI-1 renal): 27.2 µM
TGI (HCT-116 colon): > 100 µM
TGI (RXF 393 renal): 71.9 µM
TGI (SF-268 CNS): > 100 µM
TGI (OVCAR-3 ovarian): 64.1 µM
TGI (HS 578T breast): 71.5 µM
TGI (OVCAR-5 ovarian): > 100 µM
TGI (LOX IMVI melanoma): 35 µM
TGI (COLO 205 colon): 37.6 µM
TGI (DU-145 prostate): 35.5 µM
TGI (OVCAR-8 ovarian): 56.5 µM
TGI (HT29 colon): 32.7 µM
TGI (SW-620 colon): > 100 µM
TGI (U251 CNS): > 100 µM
TGI (ACHN renal): 22.7 µM
TGI (CCRF-CEM leukemia): 17.9 µM
TGI (MALME-3M melanoma): 30.5 µM
TGI (PC-3 prostate): > 100 µM
TGI (NCI-H522 lung): 35.6 µM
TGI (SK-MEL-5 melanoma): 28.8 µM
TGI (SF-295 CNS): > 100 µM
TGI (A498 renal): > 100 µM
TGI (MCF7 breast): 27.3 µM
TGI (MDA-MB-435): > 100 µM
TGI (SR leukemia): > 100 µM
TGI (RPMI-8226 leukemia): > 100 µM
TGI (HL-60(TB) leukemia): > 100 µM
TGI (MDA-MB-231 breast): 80.1 µM
TGI (SN12C renal): 59 µM
TGI (SF-539 CNS): 27.2 µM
TGI (SK-OV-3 ovarian): 80.2 µM
TGI (M14 melanoma): 31.9 µM
TGI (BT-549 breast): 24.8 µM
TGI (T-47D breast): 42.1 µM
TGI (OVCAR-4 ovarian): 30.3 µM
TGI (HOP-92 NSCLC): 88.9 µM
TGI (NCI-H226 lung): 40.1 µM
TGI (HCT-15 colon): 45.9 µM
TGI (SNB-19 CNS): > 100 µM
TGI (UACC-257 melanoma): 41.8 µM
TGI (HCC-2998 colon): 37.3 µM
TGI (EKVX NSCLC): > 100 µM
TGI (K-562 leukemia): > 100 µM

N#Cc1c(C#N)c(SSc2c(C#N)c(C#N)c(N)n2-c2ccc(F)cc2)n(-c2ccc(F)cc2)c1N
TGI (NCI/ADR-RES ovarian): 59.4 µM
TGI (TK-10 renal): 8.27 µM
TGI (A549 NSCLC): 36.7 µM
TGI (SK-MEL-28 melanoma): 19.9 µM
TGI (MOLT-4 leukemia): 2.99 µM
TGI (SNB-75 CNS): 32.6 µM
TGI (UACC-62 melanoma): 31.7 µM
TGI (SK-MEL-2 melanoma): 44 µM
TGI (786-0 renal): 3.22 µM
TGI (IGROV1 ovarian): 37.9 µM
TGI (UO-31 renal): 3.87 µM
TGI (HOP-62 NSCLC): 33.2 µM
TGI (KM12 colon): 44.3 µM
TGI (NCI-H23 lung): 14.3 µM
TGI (MDA-N): 10.8 µM
TGI (NCI-H460 lung): 41.2 µM
TGI (CAKI-1 renal): 21.1 µM
TGI (HCT-116 colon): 3.38 µM
TGI (RXF 393 renal): 8.48 µM
TGI (SF-268 CNS): 48.2 µM
TGI (OVCAR-3 ovarian): 6.92 µM
TGI (HS 578T breast): > 58.3 µM
TGI (OVCAR-5 ovarian): 30.9 µM
TGI (LOX IMVI melanoma): 59.9 µM
TGI (COLO 205 colon): 3.76 µM
TGI (DU-145 prostate): 30.6 µM
TGI (OVCAR-8 ovarian): 32.4 µM
TGI (HT29 colon): 36.5 µM
TGI (SW-620 colon): 5.59 µM
TGI (U251 CNS): 40.1 µM
TGI (ACHN renal): 8.55 µM
TGI (CCRF-CEM leukemia): 4.62 µM
TGI (MALME-3M melanoma): 3.28 µM
TGI (PC-3 prostate): 33.3 µM
TGI (NCI-H522 lung): 4.11 µM
TGI (SK-MEL-5 melanoma): 31.1 µM
TGI (SF-295 CNS): 31.8 µM
TGI (A498 renal): 18.9 µM
TGI (MCF7 breast): > 24.8 µM
TGI (MDA-MB-435): 19.2 µM
TGI (SR leukemia): 1.98 µM
TGI (HL-60(TB) leukemia): 4.44 µM
TGI (MDA-MB-231 breast): 37.6 µM
TGI (SN12C renal): 31.5 µM
TGI (SF-539 CNS): 35.6 µM
TGI (SK-OV-3 ovarian): 31.4 µM
TGI (M14 melanoma): 9.07 µM
TGI (BT-549 breast): 7.2 µM
TGI (T-47D breast): 7.96 µM
TGI (OVCAR-4 ovarian): > 100 µM
TGI (HOP-92 NSCLC): 7.82 µM
TGI (NCI-H226 lung): 46 µM
TGI (HCT-15 colon): 4.25 µM
TGI (SNB-19 CNS): 42.6 µM
TGI (UACC-257 melanoma): 32.5 µM
TGI (HCC-2998 colon): 45.3 µM
TGI (EKVX NSCLC): 5.13 µM
